Assay results from ChEMBL document CHEMBL5625167, “In vitro bioevaluation and docking study of dihydrosphingosine and ethambutol analogues against sensitive and multi-drug resistant Mycobacterium tuberculosis” (Eur J Med Chem, 2023).
In brackets after ≈: the same amount, converted by molar mass. Activity calls are given as the source filed them. The rule behind the calls is not given here.

How the values were obtained:
[1] = test system: Mycobacterium tuberculosis; test: Antimycobacterial activity against Mycobacterium tuberculosis H37Rv ATCC 25618 assessed as induction of morphological changes by measuring disruption and discontinuity of the bacterial envelope at MIC incubated for 96 hrs by TEM analysis; type: functional, organism-based
[2] = Cytotoxicity against human HepG2 cells assessed as reduction in cell population incubated for 48 hrs by MTT assay; type: toxicity, cell-based
[3] = test system: Mycolicibacterium smegmatis; test: Intracellular antimycobacterial activity against Mycobacterium smegmatis ATCC607 infected in mouse J774 cells assessed as reduction in bacterial count at 16 to 32 uM measured after 24 hrs; type: functional, organism-based; conditions: dose 16-32 µM
[4] = test system: Mycobacterium tuberculosis; test: Additive antimycobacterial activity against Mycobacterium tuberculosis H37Rv ATCC 25618 incubated for 7 days by resazurin dye based two-dimensional micro dilution checkerboard assay in presence of levofloxacin; type: functional; conditions: time 7 day
[5] = test system: Mycobacterium tuberculosis; test: Antimycobacterial activity against Mycobacterium tuberculosis H37Rv ATCC 25618 assessed as induction of morphological changes by measuring extrusion of cytosolic material at MIC incubated for 96 hrs by TEM analysis; type: functional, organism-based
[6] = test system: Mycolicibacterium smegmatis; test: Antimycobacterial activity against Mycobacterium smegmatis ATCC607 infected in mouse J774 cells assessed as log reduction in intracellular bacterial count at 2 times MIC measured after 24 hrs relative to control; type: functional
[7] = test system: Mycolicibacterium smegmatis; test: Antimycobacterial activity against Mycobacterium smegmatis ATCC607 infected in mouse J774 cells assessed as log reduction in intracellular bacterial count at MIC in presence of rifampicin measured for 24 hrs; type: functional
[8] = test system: Mycobacterium tuberculosis; test: Additive antimycobacterial activity against Mycobacterium tuberculosis H37Rv ATCC 25618 assessed as fractional inhibitory concentration index incubated for 7 days by resazurin dye based two-dimensional micro dilution checkerboard assay in presence of amikacin; type: functional; conditions: time 7 day
[9] = test system: Mycobacterium tuberculosis; test: Additive antimycobacterial activity against Mycobacterium tuberculosis H37Rv ATCC 25618 assessed as fractional inhibitory concentration index incubated for 7 days by resazurin dye based two-dimensional micro dilution checkerboard assay in presence of ethambutol; type: functional; conditions: time 7 day
[10] = test system: Mycolicibacterium smegmatis; test: Antimycobacterial activity against Mycobacterium smegmatis ATCC607 infected in mouse J774 cells assessed as reduction in intracellular bacterial count at 2 times MIC measured after 24 hrs relative to control; type: functional; design: scale not given: the % may be the effect or the level left
[11] = test system: Klebsiella pneumoniae; test: Antibacterial activity against Klebsiella pneumoniae ATCC 13883 incubated for 18 hrs by resazurin dye based broth microdilution method; type: functional
[12] = test system: Mycobacterium tuberculosis; test: Synergistic antimycobacterial activity against Mycobacterium tuberculosis H37Rv ATCC 25618 incubated for 7 days by resazurin dye based two-dimensional micro dilution checkerboard assay in presence of rifampicin; type: functional; conditions: time 7 day
[13] = test system: Mycolicibacterium smegmatis; test: Antimycobacterial activity against Mycobacterium smegmatis ATCC607 assessed as reduction in bacterial viability at 16 uM by time kill assay; type: functional, organism-based; conditions: time 0-72 hrs, TDE = time-dependent effect
[14] = test system: Staphylococcus aureus; test: Antibacterial activity against Staphylococcus aureus ATCC 25923 incubated for 18 hrs by resazurin dye based broth microdilution method; type: functional
[15] = test system: Mycolicibacterium smegmatis; test: Antimycobacterial activity against Mycobacterium smegmatis ATCC607 assessed as reduction in bacterial viability at 16 uM measured after 72 hrs by time kill assay in presence of rifampicin relative to control; type: functional
[16] = Cytotoxicity against mouse J774.A1 cells assessed as reduction in cell population incubated for 48 hrs by MTT assay; type: toxicity, cell-based
[17] = test system: Mycobacterium tuberculosis; test: Additive antimycobacterial activity against Mycobacterium tuberculosis H37Rv ATCC 25618 assessed as fractional inhibitory concentration index incubated for 7 days by resazurin dye based two-dimensional micro dilution checkerboard assay in presence of isoniazid; type: functional; conditions: time 7 day
[18] = test system: Mycobacterium tuberculosis; test: Antimycobacterial activity against Mycobacterium tuberculosis H37Rv ATCC 25618 assessed as induction of morphological changes by measuring increase in lipid inclusions at MIC incubated for 96 hrs by TEM analysis; type: functional, organism-based
[19] = test system: Mycolicibacterium smegmatis; test: Antimycobacterial activity against Mycobacterium smegmatis ATCC607 assessed as reduction in bacterial viability at 16 uM incubated for 24 hrs by time kill assay relative to control; type: functional
[20] = test system: Mycobacterium tuberculosis; test: Antimycobacterial activity against isoniazid, rifampicin, ethambutol and pyrazinamide sensitive Mycobacterium tuberculosis H37Rv ATCC 25618 assessed as inhibition of bacterial growth incubated for 7 days by resazurin dye based colorimetric method analysis; type: functional; conditions: H37Rv ATCC 25618, 168 h, time 7 day
[21] = test system: Mycolicibacterium smegmatis; test: Antimycobacterial activity against Mycobacterium smegmatis ATCC607 infected in mouse J774 cells assessed as reduction in intracellular bacterial count at 32 uM measured after 6 hrs relative to control; type: functional; design: scale not given: the % may be the effect or the level left
[22] = test system: Mycolicibacterium smegmatis; test: Antimycobacterial activity against Mycobacterium smegmatis ATCC607 incubated for 24 hrs by resazurin dye based broth microdilution method; type: functional
[23] = test system: Mycobacterium tuberculosis; test: Synergistic antimycobacterial activity against Mycobacterium tuberculosis H37Rv ATCC 25618 assessed as fractional inhibitory concentration index incubated for 7 days by resazurin dye based two-dimensional micro dilution checkerboard assay in presence of rifampicin; type: functional; conditions: time 7 day
[24] = test system: Mycobacterium tuberculosis; test: Additive antimycobacterial activity against Mycobacterium tuberculosis H37Rv ATCC 25618 assessed as fractional inhibitory concentration index incubated for 7 days by resazurin dye based two-dimensional micro dilution checkerboard assay in presence of levofloxacin; type: functional; conditions: time 7 day
[25] = test system: Mycobacterium tuberculosis; test: Additive antimycobacterial activity against Mycobacterium tuberculosis H37Rv ATCC 25618 incubated for 7 days by resazurin dye based two-dimensional micro dilution checkerboard assay in presence of amikacin; type: functional; conditions: time 7 day
[26] = test system: Mycobacterium tuberculosis; test: Additive antimycobacterial activity against Mycobacterium tuberculosis H37Rv ATCC 25618 incubated for 7 days by resazurin dye based two-dimensional micro dilution checkerboard assay in presence of isoniazid; type: functional; conditions: time 7 day
[27] = test system: Mycobacterium tuberculosis; test: Antimycobacterial activity against Mycobacterium tuberculosis H37Rv ATCC 25618 assessed as reduction in concentration required to inhibit bacterial growth incubated for 7 days by resazurin dye based two-dimensional micro dilution checkerboard assay in presence of rifampicin relative to control; type: functional; design: scale not given: the % may be the effect or the level left; conditions: time 7 day
[28] = test system: Mycobacterium tuberculosis; test: Additive antimycobacterial activity against Mycobacterium tuberculosis H37Rv ATCC 25618 incubated for 7 days by resazurin dye based two-dimensional micro dilution checkerboard assay in presence of ethambutol; type: functional; conditions: time 7 day
[29] = Cytotoxicity against African green monkey Vero cells assessed as reduction in cell population incubated for 48 hrs by MTT assay; type: toxicity, cell-based; conditions: chlorocebus sabaeus
[30] = test system: Mycobacterium tuberculosis; test: Potency index, ratio of ethambutol MIC to test compound MIC for antimycobacterial activity against isoniazid, rifampicin, ethambutol and pyrazinamide sensitive Mycobacterium tuberculosis H37Rv ATCC 25618 assessed as inhibition of bacterial growth incubated for 7 days by resazurin dye based colorimetric method analysis; type: functional; conditions: time 7 day
[31] = test system: Mycolicibacterium smegmatis; test: Antimycobacterial activity against Mycobacterium smegmatis ATCC607 infected in mouse J774 cells assessed as reduction in intracellular bacterial count at MIC in presence of rifampicin measured for 24 hrs relative to control; type: functional; design: scale not given: the % may be the effect or the level left

CCCCCCCCCCCCCCCC(N)COCc1cc(OC)c(OC)c(OC)c1 (stereo unspecified)
Activity [1]: Active
CC50 at 48 h [2]: 149 µM
Activity [3]: Active
FIC [4]: 0.127
Activity [5]: Active
Activity [6]: 1.9 log10CFU/ml
Activity [7]: >1 log10CFU/ml
fractional inhibitory concentration index (FICI) [8]: 0.63
fractional inhibitory concentration index (FICI) [9]: 0.63
Activity [10]: 33.3%
MIC [11]: 512 µM (≈ 231 µg/mL)
FIC [12]: 0.25
Activity [13]: Tde
MIC [14]: ≤ 4 µM
Activity [15]: >99.9%
CC50 at 48 h [16]: 120 µM
fractional inhibitory concentration index (FICI) [17]: 0.63
Activity [18]: Active
Activity [19]: 99.9%
MIC [20]: 8 µM (≈ 3.61 µg/mL)
Activity [21]: 6.2%
MIC [22]: 16 µM (≈ 7.23 µg/mL)
fractional inhibitory concentration index (FICI) [23]: 0.5
fractional inhibitory concentration index (FICI) [24]: 0.63
FIC [25]: 0.126
FIC [26]: 0.125
Activity [27]: 75%
FIC [28]: 0.013
CC50 at 48 h [29]: 17.7 µM
Ratio [30]: 45
Activity [31]: 12.2%
